Assay [1] relates to HarmOR repertoire. Kind of assay: Responses of the 28 functional HarmORs across odorant doses (PCA of oocyte currents). The format is cell-based, Helicoverpa armigera. Conditions: odorant 10^−7 M. An excerpt: Vectors quantifying the responses of the 28 ORs to each odorant were projected onto a 3D landscape. This 3D representation captured 78.34% (10^−4 M), 65.11% (10^−5 M), 68.89% (10^−6 M), and 84.52% (10^−7 M) of the variation in the original 28D data set across different odorant concentrations. […] In addition, the capacity of the H. armigera odor space was highly dependent on odorant concentration. As the concentrations of odorants decreased, their positions in the odor space converged, with the ability to discriminate different odorants diminishing.
(§1) Functional characterization of individual ORs was performed by heterologous expression in Xenopus oocytes combined with a two-electrode voltage-clamp system ([Wang et al. 2010]). Briefly, the full-length gene of each OR and Orco were subcloned into the eukaryotic expression vector pT7TS. cRNAs were generated from linearized expression vectors using the mMESSAGE mMACHINE T7 kit (Ambion, Austin, TX). Then, the cRNA mixture of ORx and Orco (27.6 ng each) was injected (Nanoliter 2010, WPI Inc., Sarasota, FL) into oocytes (stage V–VII). The respective Orcos of different species were used for functional studies of OR42 orthologs except for the four butterfly species (V. tameamea, P. xuthus, D. plexippus, and P. rapae), in which we used the Orco from P. xuthus. After incubation in nutrient solution at 18 °C for 3–5 days, the response profile of each oocyte to multiple plant odorants was recorded via a two-electrode voltage clamp (OC-725C oocyte clamp, Warner Instruments, Hamden, CT) at a holding potential of −80 mV. Data were acquired by using a Digidata 1440 A and were analyzed by pCLAMP 10.2 software (Axon Instruments Inc., Union City, CA).
Stock solutions of each odorant were prepared at 1 M using DMSO as a solvent, and each odorant was diluted in 1× Ringer’s solution to the indicated concentrations for electrophysiological recording. For functional screening of each HarmOR, a panel of 67 odorants belonging to three types of chemical classes: terpenes, aromatics, and aliphatics (short-chain fatty acid) were used (supplementary table S1, Supplementary Material online). For functional studies of OR42 orthologs from different species, six odorants including PAA, benzaldehyde, (E)-2-hexen-1-al, cinnamaldehyde, 2-phenylethanol, and heptanal were used.
Graphs and data statistics of OR response spectra, dose responses, EAG, and behavioral experiments were generated by Prism 7 (GraphPad Software, La Jolla, CA). A heat map was generated in Excel 2010 (Microsoft Corporation, WA). […] For tuning breadth analysis, the kurtosis values (K) were calculated by SPSS 22 (SPSS Inc., Chicago, IL) and were used to define the tuning spectra width, where smaller K values represent broader tuning spectra (fig. 1B). […]

Assay [2] relates to RnubOR13. Kind of assay: Xenopus oocyte voltage clamp of RnubOR13. The format is cell-based, Rhyacophila nubila. Conditions: test panel.
Source text: We also examined the response profile of EsemOR19 from E. semipurpurella, an OR that falls close to the HarmOR42-defined clade but that is not considered as a HarmOR42 ortholog. […] We also characterized the function of RnubOR13 from R. nubila (Trichoptera), a species from a sister order of Lepidoptera. […] Unfortunately, the putative E. semipurpurella OR that would consist of EsemOR34 + 35 and that falls at the base of the HarmOR42 clade could not be tested as it is incomplete.
as §1, with “Then, the cRNA mixture of ORx and Orco (27.6 ng each) was injected (Nanoliter 2010, WPI Inc., Sarasota, FL) into oocytes (stage V–VII). The respective Orcos of different species were used for functional studies of OR42 orthologs except for the four butterfly species (V. tameamea, P. xuthus, D. plexippus, and P. rapae), in which we used the Orco from P. xuthus.” left out, “CA). […]” for “CA).”

These results are taken from publication PMC8042770, “Odorant Receptors for Detecting Flowering Plant Cues Are Functionally Conserved across Moths and Butterflies” (Molecular Biology and Evolution, 2020).

SMILES strings stand for the structures.

Take `O=CCc1ccccc1` [Phenylacetaldehyde]: the “response of the HarmOR repertoire” value in assay [1] is on record as “still responded”. Also, the “response of RnubOR13” value in assay [2] was “activated neither”.
